Reference: patent publication US20180147196A1, “PYRIDIN-3-YL ACETIC ACID DERIVATIVES AS INHIBITORS OF HUMAN IMMUNODEFICIENCY VIRUS REPLICATION” (priority 2015, published 2018)
Read-outs that look alike come from different tables or passages of the source.

System: NL-RLuc virus
Test: Inhibition of HIV replication (NL-RLuc virus in MT-2 cells, luciferase readout)
Type: cell-based
Conditions: Human immunodeficiency virus 1, MT2, 120 h
Description: Inhibition of HIV replication: A recombinant NL-RLuc proviral clone was constructed in which a section of the nef gene from NL4-3 was replaced with the Renilla Luciferase gene. This virus is fully infectious and can undergo multiple cycles of replication in cell culture. In addition, the luciferous reporter provides a simple and easy method for quantitating the extent of virus growth and consequently, the antiviral activity of test compounds. The plasmid pNLRLuc contains the proviral NL-Rluc DNA cloned into pUC18 at the Pvull site. The NL-RLuc virus was prepared by transfection of 293T cells with the plasmid pNLRLuc. Transfections were performed using the LipofectAMINE PLUS kit from Invitrogen (Carlsbad, Calif.) according to the manufacturer and the virus generated was titered in MT-2 cells. For susceptibility analyses, the titrated virus was used to infect MT-2 cells in the presence of compound, and after 5 days of incubation, cells were processed and quantitated for virus growth by the amount of expressed luciferase. Assay media was RPMI 1640 supplemented with 10% heat inactivated fetal bovine serum (FBS), 100 units/ml penicillin G/100 units/ml streptomycin, 10 mM HEPES buffer pH 7.55 and 2 mM L-glutamine. The results from at least 2 experiments were used to calculate the EC50 values. Luciferase was quantitated using the Dual Luciferase kit from Promega (Madison, Wis.). Susceptibility of viruses to compounds was determined by incubation in the presence of serial dilutions of the compound. The 50% effective concentration (EC50) was calculated by using the exponential form of the median effect equation where (Fa)=1/[1+(ED50/drug conc.)^m] (Johnson V A, Byington R T. Infectivity Assay. In Techniques in HIV Research. ed. Aldovini A, Walker BD. 71-76. New York: Stockton Press.1990). Activity equal to A refers to a compound having an EC50<100 nM, while B and C denote compounds having an EC50 between 100 nM and 1 uM (B) or >1 uM (C).

Structure (SMILES)	EC50 (read-out: Activity)	EC50 (read-out: EC50 μM)
Cc1nc(C)c([C@H](OC(C)(C)C)C(=O)O)c(N2CCC(C)(C)CC2)c1/C=C/CNC(=O)OCc1ccccc1 [Example 17, (S,E)-2-(5-(3-(((Benzyloxy)carbonyl)amino)prop-1-en-1-yl)-4-(4,4-dimethylpiperidin-1-yl)-2,6-dimethylpyridin-3-yl)-2-(tert-butoxy)acetic acid]	< 0.1 µM	
Cc1nc(C)c([C@H](OC(C)(C)C)C(=O)O)c(N2CCC(C)(C)CC2)c1C1=CCCCC1 [Example 14, (S)-2-(tert-Butoxy)-2-(5-(cyclohex-1-en-1-yl)-4-(4,4-dimethylpiperidin-1-yl)-2,6-dimethylpyridin-3-yl)acetic acid]	0.1 to 1 µM	0.136 µM
Cc1nc(C)c([C@H](OC(C)(C)C)C(=O)O)c(N2CCC(C)(C)CC2)c1/C=C/c1ccc(C(F)(F)F)cc1 [Example 7, (S,E)-2-(tert-Butoxy)-2-(4-(4,4-dimethylpiperidin-1-yl)-2,6-dimethyl-5-(4-(trifluoromethyl)styryl)pyridin-3-yl)acetic acid]	< 0.1 µM	
Cc1nc(C)c([C@H](OC(C)(C)C)C(=O)O)c(N2CCC(C)(C)CC2)c1C#CC1(O)CCN(Cc2ccccc2)CC1 [Example 2, (S)-2-(5-((1-Benzyl-4-hydroxypiperidin-4-yl)ethynyl)-4-(4,4-dimethylpiperidin-1-yl)-2,6-dimethylpyridin-3-yl)-2-(tert-butoxy)acetic acid]	< 0.1 µM	0.064 µM
Cc1nc(C)c([C@H](OC(C)(C)C)C(=O)O)c(N2CCC(C)(C)CC2)c1/C=C/c1ccccc1 [Example 11, (S,E)-2-(tert-Butoxy)-2-(4-(4,4-dimethylpiperidin-1-yl)-2,6-dimethyl-5-styrylpyridin-3-yl)acetic acid]	< 0.1 µM	0.027 µM
Cc1nc(C)c([C@H](OC(C)(C)C)C(=O)O)c(N2CCC(C)(C)CC2)c1CCc1ccc(C(F)(F)F)cc1 [Example 8, (S)-2-(tert-Butoxy)-2-(4-(4,4-dimethylpiperidin-1-yl)-2,6-dimethyl-5-(4-(trifluoromethyl)phenethyl)pyridin-3-yl)acetic acid]	0.1 to 1 µM	
